In the supplement of paper PMC5579334:
± gives the standard deviation of the averaged measurements.

Tests used:
S1507-2 [1] = test: drug sensitivity score (DSS, CellTiter-Glo viability, 72 h) (DSS (dimensionless)); higher = more sensitive; extreme values may be limits of the assay
In short: (§1)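 MPNST cell lines and primary human Schwann cells were seeded at 750–1000 cells per well into 384-well plates preprinted with each compound at five concentrations in 10-fold steps, then incubated 72 h at 37 °C, 5% CO2. CellTiter-Glo ATP luminescence gave viability, scaled between vehicle and positive-control wells, with duplicates averaged where present. Curves were fitted with a four-parameter logistic model. Percent inhibition refers to the top concentration, while drug sensitivity score and relative IC50, censored at the top concentration, come from these fits.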

ST8814 [2] = test: as above
In short: as §1

[3] = system: HSC1 (primary human Schwann cells); test: as above
In short: as §1

STS26T [4] = test: as above
In short: as §1

S462 [5] = test: as above
In short: as §1

[6] = system: HSC2 (primary human Schwann cells); test: as above
In short: as §1

S1507-2 [7] = test: % inhibition of CellTiter-Glo viability at highest tested concentration (72 h), relative to DMSO and benzethonium chloride controls; higher = more inhibition
In short: as §1

ST8814 [8] = test: as above
In short: as §1

[9] = system: HSC1 (primary human Schwann cells); test: as above
In short: as §1

STS26T [10] = test: as above
In short: as §1

S462 [11] = test: as above
In short: as §1

[12] = system: HSC2 (primary human Schwann cells); test: as above
In short: as §1

S1507-2 [13] = test: drug sensitivity score (DSS, CellTox-Green cytotoxicity, 72 h) (DSS (dimensionless)); higher = more cytotoxic; extreme values may be limits of the assay
In short: (§2)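 For 72 h at 37 °C, MPNST cell lines and primary human Schwann cells were exposed in 384-well plates to five 10-fold compound dilutions. CellTox-Green, added before seeding at a final 1:1000 dilution, gave fluorescence from DNA released by disrupted cells. Signals were scaled to vehicle and positive-control wells, cultures failing plate quality control were left out, and four-parameter logistic fits were applied. Relative IC50 and drug sensitivity score were derived from the fits, with IC50 censored at the top concentration.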

ST8814 [14] = test: as above
In short: as §2

[15] = system: HSC1 (primary human Schwann cells); test: as above
In short: as §2

STS26T [16] = test: as above
In short: as §2

[17] = system: HSC2 (primary human Schwann cells); test: as above
In short: as §2

HS-PSS [18] = test: drug sensitivity score (DSS, CellTiter-Glo viability, 72 h) (DSS (dimensionless)); higher = more sensitive; extreme values may be limits of the assay
In short: as §1

YST-1 = test: as above
In short: as §1

HS-Sch-2 [19] = test: as above
In short: as §1

HS-PSS [20] = test: % inhibition of CellTiter-Glo viability at highest tested concentration (72 h), relative to DMSO and benzethonium chloride controls; higher = more inhibition
In short: as §1

HS-Sch-2 [21] = test: as above
In short: as §1

HS-PSS [22] = test: drug sensitivity score (DSS, CellTox-Green cytotoxicity, 72 h) (DSS (dimensionless)); higher = more cytotoxic; extreme values may be limits of the assay
In short: as §2

Row | SMILES | drug sensitivity score (S1507-2 [1]) | drug sensitivity score (ST8814 [2]) | drug sensitivity score [3] | drug sensitivity score (STS26T [4]) | drug sensitivity score (S462 [5]) | drug sensitivity score [6] | % inhibition (S1507-2 [7]) [%] | % inhibition (ST8814 [8]) [%] | % inhibition [9] [%] | % inhibition (STS26T [10]) [%] | % inhibition (S462 [11]) [%] | % inhibition [12] [%] | drug sensitivity score (S1507-2 [13]) | drug sensitivity score (ST8814 [14]) | drug sensitivity score [15] | drug sensitivity score (STS26T [16]) | drug sensitivity score [17] | drug sensitivity score (HS-PSS [18]) | drug sensitivity score (YST-1) | drug sensitivity score (HS-Sch-2 [19]) | % inhibition (HS-PSS [20]) [%] | % inhibition (HS-Sch-2 [21]) [%] | drug sensitivity score (HS-PSS [22])
1 | COc1ncc(-c2ccc3nccc(-c4ccnnc4)c3c2)cc1NS(=O)(=O)c1ccc(F)cc1F (max concentration tested 1000 nM) | 14 ± 0.98 | 12.8 | 16.1 | 16.6 | 10.1 ± 1.8 | 15.8 | 72.9 ± 5.3 | 90 | 84.4 | 83.4 | 75.23 ± 0.42 | 84.1 | 0.225 ± 0.23 | 4 | 0 | 0.0475 | 0 |  |  |  |  |  | 
2 | Cn1cc(C[C@@H](N)C(=O)O)c2ccccc21 [1-methyl-D-tryptophan aq] (max concentration tested 5000 nM) | 0 | 0 | 0 | 0 | 0 | 0 | 0.132 ± 6.3 | -2.14 | 4.52 | -5.75 | 0.824 ± 5.1 | 1.85 | 0.475 ± 0.58 | 0 | 0 | 0.0551 | 0.888 |  |  |  |  |  | 
3 | CCCCC/C=C/C=C1/C(=O)C=C[C@@H]1C/C=C\CCCC(=O)O [15D-PGJ2] (max concentration tested 800 nM) | 0.113 ± 0.16 | 0 | 0 | 0 | 0 | 0 | 4.46 ± 11 | -9.15 | 2.13 | -0.85 | 0.683 ± 8.3 | 0.683 | 0 | 0 | 0 | 0 | 0 |  |  |  |  |  | 
4 | Cc1sc2c(c1C)C(c1ccc(Cl)cc1)=N[C@@H](CC(=O)OC(C)(C)C)c1nnc(C)n1-2 [(+)JQ1] (max concentration tested 10000 nM) | 18.5 ± 0.8 | 14.8 | 10.2 | 8.02 | 11.3 ± 0.7 | 10.4 | 86.1 ± 1 | 75.6 | 61.1 | 43.2 | 69.3 ± 1.7 | 66 | 12.7 ± 1.7 | 5.02 | 0 | 0 | 0 |  |  |  |  |  | 
5 | Cc1sc2c(c1C)C(c1ccc(Cl)cc1)=N[C@H](CC(=O)OC(C)(C)C)c1nnc(C)n1-2 [(-)JQ1] (max concentration tested 10000 nM) | 0.382 ± 0.54 | 0.724 | 0.0114 | 0.598 | 0.987 ± 0.67 | 0.217 | 12.5 ± 8.2 | 20 | 11 | 15.6 | 21.6 ± 8.9 | 15.6 | 0 | 0 | 0 | 0 | 0 |  |  |  |  |  | 
6 | CC1(C)CCC(CN2CCN(c3ccc(C(=O)NS(=O)(=O)c4ccc(NCC5CCOCC5)c([N+](=O)[O-])c4)c(Oc4cnc5[nH]ccc5c4)c3)CC2)=C(c2ccc(Cl)cc2)C1 [ABT-199] (max concentration tested 10000 nM) | 0 | 0.111 | 0.0759 | 0 | 0.138 ± 0.2 | 0.781 | 8.98 ± 1.1 | 15.5 | 14.4 | 3.69 | 7.02 ± 15 | 23.8 | 0.226 ± 0.32 | 0.467 | 0 | 0 | 0 |  |  |  |  |  | 
7 | CC[C@@]1(O)C(=O)OCc2c1cc1n(c2=O)Cc2cc3ccccc3nc2-1 [Camptotechin] (max concentration tested 5000 nM) | 19.2 ± 0.92 | 26.9 | 22.7 | 22 | 26.995 ± 0.022 | 23.8 | 100 ± 0.18 | 100 | 101 | 102 | 103.58 ± 0.083 | 102 | 10.95 ± 0.027 | 30.9 | 20.8 | 13.2 | 17.7 |  |  |  |  |  | 
8 | O=C(O)C1(C(=O)O)CCC1.[NH2-].[NH2-].[Pt+2] [Carboplatin aq] (max concentration tested 100000 nM) | 5.78 ± 1.4 | 6.09 | 8.01 | 6.61 | 8.728 ± 0.04 | 8.82 | 73.8 ± 1.3 | 87.5 | 85.9 | 81.2 | 98.3 ± 1 | 93.2 | 2.71 ± 1.2 | 6.79 | 6.3 | 4.47 | 7.86 |  |  |  |  |  | 
9 | CCN(CC)CCCC(C)Nc1ccnc2cc(Cl)ccc12 (stereo not given) [Chloroquine aq] (max concentration tested 100000 nM) | 20.19 ± 0.053 | 17.4 | 9.99 | 14.5 | 13 ± 1.7 | 9.45 | 95.13 ± 0.85 | 96.1 | 94.7 | 96.2 | 95.68 ± 0.34 | 94.5 | 18.3 ± 0.29 | 18.6 | 9.24 | 15.1 | 8.02 |  |  |  |  |  | 
10 | CC1=C2C[C@H]3[C@@H](CC=C4C[C@@H](O)CC[C@@]43C)[C@@H]2CC[C@]12O[C@@H]1C[C@H](C)CN[C@H]1[C@H]2C [Cyclopamine] (max concentration tested 10000 nM) | 0.114 ± 0.16 | 0 | 0 | 0 | 0 | 0 | 11.5 ± 3 | -4.3 | 9.19 | 4.33 | -1.34 ± 2.9 | 7.88 | 0.06 ± 0.085 | 0 | 0 | 0 | 0 |  |  |  |  |  | 
11 | CC(=O)N(O)CCCCCNC(=O)CCC(=O)N(O)CCCCCNC(=O)CCC(=O)N(O)CCCCCN [Deferoxamine aq] (max concentration tested 10000 nM) | 6.96 ± 1 | 9.08 | 5.55 | 5.09 | 6.82 ± 1.4 | 7.69 | 61 ± 2.2 | 88.2 | 60.6 | 52.3 | 74.6 ± 9.3 | 64.9 | 0.026 ± 0.037 | 3.55 | 0 | 0 | 0 |  |  |  |  |  | 
12 | Cc1c(C(=O)Nc2ccc(N3C[C@@H](C)O[C@@H](C)C3)nc2)cccc1-c1ccc(OC(F)(F)F)cc1 [Erismodegib] (max concentration tested 10000 nM) | 0.871 ± 1.2 | 0 | 0 | 0.451 | 0 | 0 | 9.49 ± 1.4 | 1.35 | 9.09 | 16.9 | 13.2 ± 2.2 | 8.65 | 14.8 ± 20 | 0 | 1.48 | 0 | 4.95 |  |  |  |  |  | 
13 | CC(C)NC[C@@H](C(=O)N1CCN(c2ncnc3c2[C@H](C)C[C@H]3O)CC1)c1ccc(Cl)cc1 [GDC-0068] (max concentration tested 10000 nM) | 2.03 ± 1 | 0.785 | 0.374 | 5.77 | 0.195 ± 0.28 | 0 | 31.5 ± 4.2 | 17.1 | 21.6 | 44 | 13.5 ± 7.9 | 6.99 | 0 | 0 | 0 | 0 | 0 |  |  |  |  |  | 
14 | Cc1c(CN2CCN(C(=O)[C@H](C)O)CC2)sc2c(N3CCOCC3)nc(-c3cnc(N)nc3)nc12 [GDC-0980] (max concentration tested 10000 nM) | 12.2 ± 0.97 | 9.92 | 11.8 | 12.5 | 10.5 ± 0.55 | 12.5 | 79.39 ± 0.55 | 90 | 82.8 | 83.4 | 76.6 ± 3.3 | 80.9 | 0.544 ± 0.76 | 1.59 | 0 | 0 | 0 |  |  |  |  |  | 
15 | C[C@H]1C=C2C(=O)O[C@H]3CC[C@@H](C1)[C@@]23O [Galiellalactone] (max concentration tested 50000 nM) | 7.75 ± 0.57 | 7.08 | 11.2 | 9.38 | 9.23 ± 1.4 | 7.95 | 92.8 ± 14 | 88.9 | 97.6 | 101 | 100 ± 2.5 | 98.5 | 2.69 ± 1.4 | 0 | 0.367 | 2.26 | 0 |  |  |  |  |  | 
16 | CS(=O)(=O)N1CCN(Cc2cc3nc(-c4cccc5[nH]ncc45)nc(N4CCOCC4)c3s2)CC1 [Pictilisib] (max concentration tested 10000 nM) | 13.4 ± 2.3 | 9.07 | 7.89 | 13.3 | 6.98 ± 0.18 | 7.76 |  |  | 78.7 |  | 68.53 ± 0.23 | 83.3 | 0.342 ± 0.48 | 1.86 | 0 | 0 | 0 | 5.78 | 14.6 | 4.35 | 52.1 | 51 | 0
